Data published in patent publication US20110263647A1 (AMGEN INC., priority 2009, published 2011).
Where two headings read alike, the source gives them in different places.

What was measured:
CYP3A4 = biological target: T1, CYP3A4 (Homo sapiens, UniProt P08684); test: CYP3A4 inhibition assay (midazolam, pooled human liver microsomes); assay type: in vitro ADME; conditions: pH 7.4, probe midazolam (2.5 μM), test compound 3 μM, human liver microsomes 0.1 mg/mL
T1 construct: tissue XenoTech LLC Lot 0610351; host or cells: pooled human liver microsomes
Procedure: (§1) Midazolam was obtained from BD Gentest (Waltham, Mass.); 1′ hydroxy midazolam and 1-hydroxy bufuralol maleate were obtained from Ultrafine Chemicals (Manchester, UK); bufuralol HCl, ketoconazole, quinidine, potassium phosphate, and NADPH were obtained from Sigma (St. Louis, Mo.). Test compounds were prepared at 10 mM concentration in DMSO (Mallinckrodt Inc., St. Louis, Mo.). NADPH was prepared at 10 mM concentration in a pH 7.4 buffer (8.3 mg/mL 66.7 mM potassium phosphate). Midazolam was prepared at 1 mM concentration in deionized water (Amgen, Thousand Oaks, Calif.), and bufuralol was prepared at 2 mM concentration in deionized water. A stock solution of ketoconazole was prepared at 37 mM concentration in DMSO, and quinidine was prepared at 500 uM concentration in DMSO. Formic acid in acetonitrile (0.05%, ACN) was used as a quench solution (Sigma-Aldrich, St. Louis, Mo.). All solvents used for LC/MS were of chromatographic grade. Pooled human liver microsomes (Lot 0610351) were purchased from XenoTech LLC, (Lenexa, Kans.).
Pooled human liver microsomes (0.1 mg/mL) were incubated at 37° C. in a phosphate buffer (66.7 mM potassium phosphate at pH 7.4) with the selective CYP3A substrate midazolam at a concentration of 2.5 μM in the presence and absence of test compound (3 μM). The reaction was started with the addition of NADPH (1 mM final concentration). The reaction was stopped after 10 minutes by addition of formic acid in acetonitrile. 1′-Hydroxymidazolam metabolite formation was measured by an HPLC MS detection method (mobile phases were 0.1% AcOH in 5% MeOH, and 0.1% AcOH in 95% MeOH; the HPLC column was an Onyx Monolithic C18 CHO-7645 HPLC column obtained from Phenomenex; Shimadzu LC-10ADVP equipped Biomek FX Liquid handling system and CTC Analytics PAL well auto-sampler; Mass spectrometer: Applied Biosystems API 3000 using Analyst 1.4.1 software). Inhibition was determined by the ratio of the amount of 1′-hydroxy midazolam metabolite formed in the presence of test compound to the amount of metabolite found in the absence of test compound Inhibition was measured relative to the rate of formation of 1′-hydroxy midazolam incubated at 2.5 μM without test compound.

[1] = In vivo pharmacokinetics, IV and oral gavage; set-up: species or system male Sprague-Dawley rats; conditions: rat; for FPO: Table 5; for Fpo (%): Table 6; for clearance / AUC(0-t) / Cmax / Vd: male, Sprague-Dawley, plasma; for Vd: read-out: Vss
Procedure: In vivo pharmacokinetic parameters were determined by measuring systemic plasma exposure in male Sprague-Dawley rats (Charles River Laboratories or Taconic, Oxnard, Calif.) by intravenous administration (N=3 fed rats: 2 mg/kg tail vein injection in DMSO) and oral gavage (N=3 fasted rats: 5 mg/kg in 1% Tween 80-2% HPMC-97% deionized water-pH 2.0 vehicle) (Comparative Example 18′ was only dosed IV and at 0.5 mg/kg). DMSO was obtained from Mallinckrodt Inc.; Tween 80 was obtained from Croda; HPMC is Methocel E50 Premium LV, obtained from Dow Excipients. Following oral administration, blood was drawn (250 μL) at 0.25, 0.5, 1, 2, 4, 6, 8, 12, and 16 hours. Following iv administration, blood was drawn (250 μL) at 0.083, 0.25, 0.5, 1, 2, 4, 6, 8, and 16 hours. Blood samples were drawn using a Culex® In Vivo Sampling System (BASi) and collected in BD Microtainer® tubes containing Lithium Heparin (BD). Plasma was obtained by centrifugation of blood at 14000 g and 2-8° C. for five minutes using an Eppendorf 5417R Centrifuge System. Plasma samples were mixed with 2× volume of acetonitrile (Sigma-Aldrich, St. Louis, Mo.). The mixture was stirred briefly using a vortex mixer and then centrifuged at 2867 g for 5 minutes in a Beckman Coulter Allegra 25R equipped with a Type S5700 rotor. The supernatant was removed and diluted 2× with mobile phase A (5/94.9/0.1 v/v/v MeOH/water/AcOH). Plasma concentrations were determined using liquid chromatography/tandem mass spectrometry, with electrospray ionization (ESI) and multiple reaction monitoring in the positive ion mode (Sciex API 3000 mass spectrometer connected to a Shimadzu LC-20AD pump and a LEAP PAL autosampler. Typical conditions used for HPLC were: mobile phase A=5/94.9/0.1 v/v/v MeOH/water/AcOH and mobile phase B=95/4.9/0.1 v/v/v MeOH/water/AcOH; HPLC column was a Varian MonoChrom C18.3μ for 2×30 mm and 51.1 for 2×50 mm) Instrument response was calibrated by a standard curve over 0.1-2000 ng/mL concentration range, and the lower limit of quantitation was 0.1-2.5 ng/mL. Peak areas were integrated on a Windows 2000 computer using the Sciex program Analyst® (Version 1.4.1). Following peak area integration, the data were exported to the software package (Watson® Non-GLP PROD (Version 7.0.0.01, Thermo Electron Corp., Waltham, Mass.)), where concentrations were determined by a weighted linear regression of peak area versus the nominal concentrations of the calibration standards. Calculations were performed on unrounded numbers. The Watson® Non-GLP PROD software was used to determine precision and accuracy for the calibration standards. Noncompartmental analysis of plasma concentration data was used to generate PK parameters such as clearance (CL, L/h/kg), volume of distribution (Vss, L/kg), area under the curve (AUC, ng·h/mL) and secondary parameters such as half-life (t1/2, h) and oral bioavailability (% F, %). This was done using WinNonlin Enterprise software (Version 5.1.1, from Pharsight Corp., Mountain View, Calif.). References for pharmacokinetic analysis include: Gabrielsson and Weiner (1997) Pharmacokinetic and Pharmacodynamic Data Analysis Concepts and Applications, 2nd ed., Swedish Pharmaceutical Press, Stockholm; Gibaldi and Perrier (1982) Pharmacokinetics, 2nd ed., Marcel Dekker, New York. Rowland and Tozer (1995) Clinical Pharmacokinetics: Concepts and Applications, 3rd ed., Lippincott Williams & Wilkins, Philadelphia.

CYP2D6 = biological target: T2, CYP2D6 (Homo sapiens, UniProt P10635); test: CYP2D6 inhibition assay (bufuralol, pooled human liver microsomes); assay type: in vitro ADME; conditions: pH 7.4, probe bufuralol (5 μM), test compound 3 μM, human liver microsomes 0.25 mg/mL
T2 construct: tissue XenoTech LLC Lot 0610351; host or cells: pooled human liver microsomes
Procedure: as §1
Pooled human liver microsomes (0.25 mg/mL) were incubated at 37° C. in a phosphate buffer (66.7 mM potassium phosphate at pH 7.4) with the selective CYP2D6 substrate bufuralol at a concentration of 5 μM in the presence and absence of test compound (3 μM). The reaction was started with the addition of NADPH (1 mM final concentration). The reaction was stopped after 10 minutes by addition of formic acid in acetonitrile. 1-Hydroxybufuralol metabolite formation was measured by an HPLC MS detection method (mobile phases for HPLC were: 0.1% AcOH in 5% MeOH, and 0.1% AcOH in 95% MeOH; the HPLC column was an Onyx Monolithic C18 CHO-7645 HPLC column from Phenomenex; Shimadzu LC-10ADVP equipped Biomek FX Liquid handling system and CTC Analytics PAL well auto-sampler; Mass spectrometer: Applied Biosystems API 3000 using Analyst 1.4.1 software). Inhibition was determined by the ratio of the amount of 1-hydroxy bufuralol metabolite formed metabolite in the presence of test compound to the amount of metabolite in the absence of test compound.

[2] = IV 2 mg/kg, read-out: IV AUClast
[3] = PO 5 mg/kg, read-out: Oral AUClast
[4] = PO 5 mg/kg, read-out: Oral Cmax

T1 sequence (P08684 whole entry): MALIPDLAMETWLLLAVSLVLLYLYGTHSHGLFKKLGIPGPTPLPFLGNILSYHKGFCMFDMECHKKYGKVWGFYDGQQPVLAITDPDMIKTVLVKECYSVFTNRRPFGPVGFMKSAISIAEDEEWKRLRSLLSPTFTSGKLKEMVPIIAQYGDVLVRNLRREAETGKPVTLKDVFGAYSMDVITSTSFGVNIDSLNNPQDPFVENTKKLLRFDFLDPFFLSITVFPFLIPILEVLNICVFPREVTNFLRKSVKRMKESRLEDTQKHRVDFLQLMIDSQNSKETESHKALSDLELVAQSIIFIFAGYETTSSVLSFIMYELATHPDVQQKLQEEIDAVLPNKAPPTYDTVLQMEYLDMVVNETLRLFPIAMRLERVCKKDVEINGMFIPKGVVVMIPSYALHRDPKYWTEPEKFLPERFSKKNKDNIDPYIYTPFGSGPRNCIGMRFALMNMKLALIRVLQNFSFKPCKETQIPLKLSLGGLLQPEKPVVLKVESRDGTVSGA
T2 sequence (P10635 whole entry): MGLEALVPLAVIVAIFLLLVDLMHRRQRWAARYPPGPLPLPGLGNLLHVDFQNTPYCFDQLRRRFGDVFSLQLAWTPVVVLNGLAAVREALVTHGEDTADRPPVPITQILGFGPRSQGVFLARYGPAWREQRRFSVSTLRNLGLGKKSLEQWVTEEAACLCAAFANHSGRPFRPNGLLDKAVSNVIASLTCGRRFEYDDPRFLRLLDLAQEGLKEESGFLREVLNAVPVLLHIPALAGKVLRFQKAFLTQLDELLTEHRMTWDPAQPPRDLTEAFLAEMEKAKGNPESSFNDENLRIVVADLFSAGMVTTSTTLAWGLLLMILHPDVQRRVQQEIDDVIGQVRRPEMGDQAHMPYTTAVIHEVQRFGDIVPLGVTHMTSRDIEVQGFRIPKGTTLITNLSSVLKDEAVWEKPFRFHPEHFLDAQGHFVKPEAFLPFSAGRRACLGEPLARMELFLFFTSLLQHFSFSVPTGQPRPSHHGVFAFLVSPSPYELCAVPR

SMILES	inhibition at 10 min, 3 μM (CYP3A4)	FPO ([1]; PO 5 mg/kg, IV 2 mg/kg)	Fpo (%) ([1]; PO 5 mg/kg, IV 2 mg/kg)	clearance ([1]; IV 2 mg/kg)	AUC(0-t) [1, 2]	Cmax ([1]; IV 2 mg/kg, read-out: IV Cmax)	Vd ([1]; IV 2 mg/kg)	AUC(0-t) [1, 3]	Cmax [1, 4]	inhibition at 10 min, 3 μM (CYP2D6)
N[C@H](CNc1ncc(-c2ccc3cnccc3c2)s1)[C@@H](CO)c1ccc(C(F)(F)F)cc1 [33′, reference compound]	91%	12%	10%	47.5 mL/min/kg	691 ng·h/mL	797 ng/mL	4.18 L/kg	199 ng·h/mL	23 ng/mL	88%
CC(F)(F)c1ccc(C[C@H](N)CNc2ncc(-c3ccc4cnccc4c3)s2)cn1 [7′, reference compound]	86%	4%	3%	97.9 mL/min/kg	336 ng·h/mL	490 ng/mL	4.55 L/kg	30 ng·h/mL	8 ng/mL	79%
N[C@H](CNc1ncc(-c2ccc3cnccc3c2)s1)Cc1ccc(C(F)(F)F)nc1 [2′, reference compound]	100%	5%	5%	37.4 mL/min/kg	870 ng·h/mL	1260 ng/mL	2.32 L/kg	117 ng·h/mL	29 ng/mL	94%
N[C@H](CNc1ncc(-c2ccc3cnccc3c2)s1)Cc1ccc(C(F)(F)F)cc1 [4′, reference compound]	87%	27%	20%	50.9 mL/min/kg	651 ng·h/mL	422 ng/mL	6.17 L/kg	432 ng·h/mL	86 ng/mL	78%
C[C@@H](c1ccc(C(F)(F)F)cc1)[C@H](N)CNc1ncc(-c2ccc3cnccc3c2)s1 [10′, reference compound]	94%	12%	25%	19.1 mL/min/kg	1680 ng·h/mL	730 ng/mL	9.46 L/kg	487 ng·h/mL	73 ng/mL	86%
COCc1nc(NC[C@@H](N)Cc2ccc(C(F)(F)F)cc2)sc1-c1ccc2cnccc2c1 [24′, reference compound]	100%	14%	19%	90.1 mL/min/kg	369 ng·h/mL	465 ng/mL	10.2 L/kg	129 ng·h/mL	51 ng/mL	94%

The next lines start with the values.

inhibition at 10 min, 3 μM (CYP3A4)	FPO ([1]; PO 5 mg/kg, IV 2 mg/kg)	Fpo (%) ([1]; PO 5 mg/kg, IV 2 mg/kg)	clearance ([1]; IV 2 mg/kg)	AUC(0-t) [1, 2]	Cmax ([1]; IV 2 mg/kg, read-out: IV Cmax)	Vd ([1]; IV 2 mg/kg)	AUC(0-t) [1, 3]	Cmax [1, 4]	inhibition at 10 min, 3 μM (CYP2D6)	SMILES
94%	146%	65%	85.6 mL/min/kg	359 ng·h/mL	284 ng/mL	8.78 L/kg	1310 ng·h/mL	153 ng/mL	81%	N[C@H](CNc1ncc(-c2ccc3cnccc3c2)s1)CN1CCC(C(F)(F)F)CC1 [Comparative Example 25′, reference compound]
72%	20%	19%	150 mL/min/kg	221 ng·h/mL	347 ng/mL	13.2 L/kg	113 ng·h/mL	27 ng/mL	86%	N[C@H](CCc1ncc(-c2ccc3cnccc3c2)s1)[C@@H](O)c1ccc(C(F)(F)F)cc1 [36′, reference compound]
86%	4%	4%	108 mL/min/kg	299 ng·h/mL	412 ng/mL	6.67 L/kg	30 ng·h/mL	13 ng/mL	88%	CC(F)(F)c1ccc([C@H](O)[C@H](N)CNc2ncc(-c3ccc4cnccc4c3)s2)cc1 [38′, reference compound]
94%	51%	45%	41.5 mL/min/kg	787 ng·h/mL	816 ng/mL	0.766 L/kg	1000 ng·h/mL	138 ng/mL	75%	N[C@H](CNc1ncc(-c2ccc3cnccc3c2)s1)Cc1ccc(Cl)c(F)c1 [44′, reference compound]
